According to patent US20230104477A1, “USE OF DEHYDROASCORBIC ACID AGAINST NEMATODE INFECTION IN PLANTS” (Universiteit Gent, priority 2019, published 2023):

Legend:
[1] = system: root-knot nematode Meloidogyne graminicola; assay: Susceptibility assay on rice plants, soil drench; type: in vivo; conditions: soil drench 24 h prior to inoculation (AA 20 mM, DHA 20 mM, AO 20 U/mL); twelve days after inoculation; vs control
Protocol: (§1) M. graminicola originally isolated in the Philippines (Batangas) was cultured on susceptible rice plants. Second stage juveniles (J2s) were extracted using a sieve/tray extraction method and inoculation was done as described in Nahar et al., (2011). For susceptibility assays, at least two independent experiments were carried out, each time including eight plants per treatment. Twelve days after inoculation (dai), roots were stained using acid fuchsine (Nahar et al., 2011) to count galls and number of nematodes in the roots.
(§2) Reduced Ascorbic acid (AA, 20 mM), dehydroascorbic acid (DHA, 20 mM), ascorbate oxidase (AO, 20 U/ml), methyl jasmonate (MeJA, 100 μM), aminooxyacetic acid (AoA, 12.5 mM), diethyldithiocarbamic acid (DIECA, 100 μM) and ethephon (100 μM) were purchased from Sigma and dissolved in water (except MeJA that was first dissolved in a drop of ETOH) to attain the indicated concentration.
For soil application, 6.5 mL of each solution was drenched on the substrate, 24 h prior to nematode inoculation.

[2] = system: Phenylalanine ammonia lyase (PAL); assay: PAL activity measurements in treated rice plants; type: in vivo; conditions: 20 mM DHA foliar spray; for PAL-activity in galls in comparison with uninfected root tips: M. graminicola infected
Protocol: PAL activity measurements—14 days old rice plants were foliar sprayed with 20 mM DHA and 1 day later, plants were inoculated with Meloidogyne graminicola nematodes (Mg+) or mock inoculated (Mg−). Three or seven days after inoculation, samples were collected. Both galls and systemic tissue (shoots) were collected. Samples were flash-frozen and ground under liquid nitrogen. Per sample, 100 mg of material was used to execute PAL-activity measurement according to Camacho-Cristobal et al. (2002). PAL was assayed by measuring the formation of trans-cinnamic acid at 290 nm. Samples were dissolved in 800 μl of 50 mM sodium phosphate as assay buffer containing 2% (w/v) poly-vinylpolypyrrolidone (PVPP), 2 mM EDTA, 18 mM-mercaptoetanol and 0.1% (v/v) Triton X-100. The homogenate was centrifuged at 8000 rpm, 4° C. for 10 min. In different 2 ml tubes, 135 μl of reaction buffer, 50 μl of 5 mM of L-phenlyalanine, and 20 μl of supernatant were mixed and absorbance at 290 nm was measured before incubation at 40° C. for 30 minutes. Then, 10 μl of hydrochloric acid was added and measurement was again done at the same wavelength. The assay was done with 4 biological replicates, which each consisted of pooled material of 4 plants.

[3] = system: root-knot nematode Meloidogyne graminicola; assay: Root growth in rice after foliar spray, nematode-infected conditions (tolerance); type: in vivo; conditions: 14-days old rice, foliar spray 20 mM, 250 nematodes per plant
Protocol: Rice—Seeds of wild-type rice Oryza sativa cv. Nipponbare were obtained from USDA (GSOR-100). Seeds were germinated on wet filter paper for 4-5 days at 30° C. and seedlings were then transferred to SAP-substrate (Sand mixed with Absorbent Polymer AquaPerla®, DCM, Belgium) and further grown at 28° C., under a light regime of (day/night) 12/12. Hoagland solution was given as a source of nutrients 3 times a week.
as §1, §2
(§3) For foliar application, all chemicals were dissolved in water and 0.02% (v/v) of Tween20 as a surfactant was added prior to spraying on aerial portions of the rice plants. Control plants were sprayed with distilled water containing 0.02% Tween20. Eight plants per treatment were sprayed until run-off with 6.5 mL of solution (at 24 h prior to nematode inoculation, in cases where infected plants were used). The substrate was covered to avoid direct contact with the roots and/or nematodes.

Heterodera schachtii = assay: Sugar beet tolerance to beet cyst nematode infection after foliar spray; type: in vivo; conditions: 250 H. schachtii per plant
Protocol: Sugar beet—seeds of cv. Amarok were germinated on moist tissue for 4-5 days at 25° C. For longer experiments seedlings were transplanted to polyvinyl-chloride (PVC) tubes containing fine soil particles. All experiments were conducted in a plant growth room at 25° C., with a 16/8 h day/night regime. The plants were fertilized by supplying Hoagland solution as a source of nutrients 3 times a week.
BNC cysts were obtained from Iran and were maintained on sugar beet (cv. Amarok) plants. Cysts were obtained from stock cultures, by washing the infected soil and letting the cysts to float in water. Full cysts with eggs were hand-picked and allowed to dry before setting up for hatching. For second-stage juveniles (J2) to hatch, cysts were placed in 3 mM of […] and transferred to an incubator/shaker at a temperature of 25.5° C. at 70 rpm for 4 days (Kammerhofer et al., 2015). J2 were re-suspended in water and counted under a stereomicroscope. Around 250-300 J2 nematodes were inoculated per plant. One day before and after inoculation, plants were not supplied with any nutrients or water. To investigate the plant tolerance to BCN infection root length, shoot height, fresh root weight as well as the number of cysts were measured at different time points after spraying and/or inoculation. For all experiments, 8 individual plants were used per treatment.
as §2, §3

H2O2 = H2O2 measurements in roots (xylenol orange method); type: in vivo, rice; conditions: 20 mM DHA-pretreated plants upon M. graminicola infection, 1 dpi
Protocol: H2O2 measurements—14 days old rice plants were foliar sprayed with 20 mM DHA and 1 day later, plants were inoculated with Meloidogyne graminicola nematodes (Mg+) or mock inoculated (Mg−). One day after inoculation, samples were collected. Root samples were flash-frozen and ground under liquid nitrogen. Per sample, 100 mg of material was used to execute the xylenol orange method for H2O2 quantification described by Cheeseman (2006). After 5% trichloroacetic acid extraction, and 30 minutes reaction with the ferrous ammonium sulphate/xylenol orange (FOX) reagent, the absorbance was measured at 560 nm. The concentration was calculated by comparison with a standard curve of known H2O2 concentrations. The assay was done with 3 biological replicates, which each consisted of pooled material of 4 plants.

M. graminicola = assay: Infection experiment with JA/ET mutant and biosynthesis inhibitors, foliar spray; type: in vivo, Meloidogyne graminicola; conditions: 12 days after inoculation
Protocol: as §1, §2, §3

[4] = system: root-knot nematode M. graminicola; assay: Susceptibility assay on rice plants, foliar spray; type: in vivo, Meloidogyne graminicola; conditions: foliar spray 24 h prior to inoculation (AA 20 mM, DHA 20 mM, AO 20 U/ml); 12 dai; vs control
Protocol: as §1, §2, §3

[5] = three-weeks old sugar beet, foliar spray (AA 20 mM, AO 20 U/mL, DHA 20 mM), 4 DAS (3 dai)

**Q.** How did the number of galls [1] turn out when `O=C1O[C@H]([C@@H](O)CO)C(=O)C1=O` [DHA, (5R)-5-[(1S)-1,2-dihydroxyethyl]furan-2,3,4(5H)-trione] was run?
**A.** significantly lower number of galls

**Q.** And the number of nematodes [1]?
**A.** lower number of nematodes

**Q.** What about the “PAL-activity in systemic shoot tissues of infected versus uninfected plants” value ([2]; 3 dpi) of the same molecule?
**A.** strongly enhanced

**Q.** And the “PAL-activity in systemic shoot tissues of infected versus uninfected plants” value ([2]; 7 dpi)?
**A.** strongly enhanced

**Q.** And the “PAL-activity in galls in comparison with uninfected root tips” value ([2]; 3 dpi)?
**A.** strongly enhanced

**Q.** And the “PAL-activity in galls in comparison with uninfected root tips” value ([2]; 7 dpi)?
**A.** strongly enhanced

**Q.** What about the root length ([3]; 8 DAS (7 days after inoculation)) of the same molecule?
**A.** most significant improved root length

**Q.** And the root length ([3]; 12 DAS (11 days after inoculation))?
**A.** most significant improved root length

**Q.** And the root system development (Heterodera schachtii; foliar spray DHA 20 mM, 43 DAS, vs control)?
**A.** better developed root system

**Q.** And the number of cysts (Heterodera schachtii; foliar spray DHA 20 mM, 43 DAS, vs untreated plants)?
**A.** significantly lower

**Q.** What about the fresh root weight (Heterodera schachtii; foliar spray, 43 DAS (42 days after inoculation), vs control) of the same molecule?
**A.** significantly more fresh root weight

**Q.** What about the root length (Heterodera schachtii; [5]) of the same molecule?
**A.** significantly increased

**Q.** And the root weight (Heterodera schachtii; [5])?
**A.** significantly increased

**Q.** What about the shoot weight (Heterodera schachtii; [5]) of the same molecule?
**A.** significantly increased

**Q.** And the shoot height (Heterodera schachtii; three-weeks old sugar beet, foliar spray (AA 20 mM, AO 20 U/mL, DHA 20 mM), 4 DAS (3 dai), DHA effect not statistically significant)?
**A.** positively influenced

**Q.** And the “H2O2 levels in roots” value (H2O2)?
**A.** induced

**Q.** What about the “reduction in number of galls” value (M. graminicola; Osjarl (JA signalling) mutants sprayed with DHA 20 mM) of the same molecule?
**A.** 25-30%

**Q.** And the “reduction in number of galls” value (M. graminicola; wild-type Nipponbare sprayed with DHA 20 mM vs unsprayed wild-type)?
**A.** 50-70%

**Q.** What about the number of galls [4] of the same molecule?
**A.** significantly lower number of galls

**Q.** And the number of nematodes [4]?
**A.** lower number of nematodes
